Where two headings read alike, the source gives them in different places. A value given as a limit tells only on which side of the number the result lay.

The subject of data set [1] is CEM cells. Nature of the data set: Cell cytotoxicity assay, cell growth. It is filed as cell-based. The settings on record: three-day growth, 50% inhibition of cell growth. On the procedure: (§1) Cell Cytotoxicity Assay. CEM cells are grown at 2.5×10^4 Cells per ml in RPM1 media supplemented with 20% dialyzed FBS. When cells double, they are seeded in 24-well plates at 1 ml/well. The tested drugs are added at various diluted dosage. After three-day growth at 37° C., 5% CO2, the cells are harvested and counted by using Coulter counter. Cytotoxicity IC50 is designated as the dosage that inhibits 50% of the cell growth compared to the untreated controls.

Data set [2] relates to VZV. Nature of the data set: Virus growth inhibition assay, VZV viral DNA slot-blot. It counts as cell-based, Varicella-Zoster virus. The settings on record: read-out: IC50 VZV. On the procedure:
Virus growth inhibition assay. Confluent virus permissive cells in 12-well plates are inoculated with the virus at 30˜40 pfu/well. After one-hour adsorption at 37° C., the inoculum is replaced with the medium containing 10% of dialyzed FBS and tested compounds at various dosages. Each dosage is duplicated. The infected cells are harvested at 72-hour postinfection. For HSV virus, the plaque reduction assay is performed to measure the virus growth. […] For VZV and EBV, the infected cells are lysed by “freeze-thaw” and the lysate is treated with protease K and RNase. […] The viral DNA is detected by hybridization with ^32P-labeled DNA fragment of viral specific gene. Autoradiographic results are quantitated by Personal Densitometer SI (Molecular Dynamics., Sunnyvale, Calif.). The same membrane is stripped and rehybridized with human β-actin gene fragment. The viral DNA amount is subsequently normalized by viral DNA/human actin DNA.

Data set [3] relates to EBV. In words: Anti-EBV activity, EBV DNA slot blot in H1 cells. The settings on record: concentration that inhibits 50% of virus growth, 5 days. It counts as cell-based, Epstein Barr virus. On the procedure: (§2) Virus growth inhibition assay. Confluent virus permissive cells in 12-well plates are inoculated with the virus at 30˜40 pfu/well. After one-hour adsorption at 37° C., the inoculum is replaced with the medium containing 10% of dialyzed FBS and tested compounds at various dosages. Each dosage is duplicated. The infected cells are harvested at 72-hour postinfection. For HSV virus, the plaque reduction assay is performed to measure the virus growth. ID50 is designated as the dosage that inhibits 50% of plaque formation compared with untreated controls. For VZV and EBV, the infected cells are lysed by “freeze-thaw” and the lysate is treated with protease K and RNase. The DNA is then subjected to slot-blot as described previous (Yao, et al., Biochem. Pharmacol. 51: 941-947). The viral DNA is detected by hybridization with ^32P-labeled DNA fragment of viral specific gene. Autoradiographic results are quantitated by Personal Densitometer SI (Molecular Dynamics., Sunnyvale, Calif.). The same membrane is stripped and rehybridized with human β-actin gene fragment. The viral DNA amount is subsequently normalized by viral DNA/human actin DNA. The concentration of the tested compounds, which inhibit 50% of viral DNA synthesis compared to untreated control, is defined as IC50.
A high yield of EBV producing cell line H1 derived from human P3HR1 cells was used in this study. Cells were cultured in RPMI medium supplemented with 10% dialyzed fetal bovine serum and 100 μg/ml Kanamycin and were grown at 37° C. in a humidified incubator containing 5% CO2.
H1 cells were maintained in logarithmic phase of growth for two days prior to the initiation of treatment. The H1 cells were seeded in 24 well plates at the density of 2×10^5 cells per well in 2 ml of fresh medium with or without drug treatment and were incubated at 37° C. for 5 days. Following the period of drug treatment the cells were pelleted and used to determine the inhibitory effect of drug on EBV DNA by slot blot assay.
A total of 4×10^5 H1 cells treated with the various nucleoside analogs (as set forth below) were lysed in 400 μl of 10 mM Tris-HCl (pH 7.5) solution by freezing and thawing 3 times. The cell lysate was treated with RNAase A (at a final concentration of 50 μg/ml) at 37° C. for 30 minutes and then with proteinase K (at a final concentration of 100 μg/ml) at 55° C. for 2 hr. The samples were denatured by adjusting the final concentration to 0.4N NaOH/10 mM EDTA at pH 8.2. After heating for 10 minutes in a water bath at 100° C., the samples were spotted onto positively charged nylon membrane using a manifold. […] The amount of EBV DNA in treated H1 cells was determined according to the ratio of EBV DNA to Alu DNA in comparison with non-treatment control H1 cells. […]

Data set [4] concerns HSV-1. In words: Virus growth inhibition assay, HSV plaque reduction. It counts as cell-based, Herpes Simplex virus. The method, then:
as §2

Data set [5] is described as follows: Cell cytotoxicity assay, cell growth. It counts as cell-based. The settings on record: human; CEM cells, three-day growth, 50% inhibition of cell growth. The method, then: as §1
The subject of data set [6] is FU catabolite amino acids. In words: FU metabolites by 19F-NMR in mice after pretreatment with BV analog. It is filed as in vivo. The conditions noted are these: BDF1 mice, 20 mg/kg p.o. two hours before FU 200 mg/kg i.p., one hour after FU. On the procedure:
Two hours after injection, 5-Flurouracil (FU) at a concentration of 200 mg/kg was administered i.p. […] Consequently, the coadministration of any one or more of the β-L nucleoside compounds along with FU or an FU produrg in the treatment of cancer to enhance the effectiveness of these agents is meritorious and unexpected.

For data set [7] the following is noted: in humans; generally ranging from about 20-30 minutes; cited from earlier work.
Where [8] appears, read: concentration that inhibits 50% of virus growth, viral DNA, 72-hour postinfection.
Setting [9] is: concentration that inhibits 50% of virus growth.
The mark [10] stands for this setting: Human alphaherpesvirus 3, concentration that inhibits 50% of virus growth, viral DNA, 72-hour postinfection.
The mark [11] stands for this setting: Human alphaherpesvirus 1, concentration that inhibits 50% of virus growth.
Where [12] appears, read: human gammaherpesvirus 4, 120 h.

In the case of `O=c1[nH]c(=O)n([C@@H]2CO[C@H](CO)O2)cc1Br` [L-BrOddU, reference compound], the IC50 in data set [1] is above 100 µM; in data set [2] (setting [8]), above 30 µM; in data set [3], 0.2 µM; in data set [4] (setting [9]), above 100 µM.

`O=c1[nH]c(=O)n([C@@H]2CO[C@H](CO)O2)cc1/C=C/Br` [L-β-BVOddU, (2S,5S)-E-5-(2-Bromovinyl)-1-[2-(hydroxymethyl)-1,3-dioxolan-5-yl]uracil] came in with an IC50 at 3 days in data set [5] above 100 µM. Also, the IC50 worked out at 0.07 µM in data set [2] (setting [10]) and 36 µM in data set [4] (setting [11]). Moreover, the “inhibition of FU catabolite amino acids” value in data set [6] is listed as around 100%.

Take `O=c1[nH]c(=O)n([C@H]2CO[C@H](CO)O2)cc1/C=C/Br` [L-α-BVOddU, (2S,5R)-E-5-(2-Bromovinyl)-1-[2-(hydroxymethyl)-1,3-dioxolan-5-yl]uracil]: the IC50 at 3 days in data set [5] is above 100 µM. In addition, the IC50 in data set [2] (setting [10]) is above 30 µM; in data set [4] (setting [11]) it was above 50 µM.

As to `O=c1[nH]c(=O)n([C@@H]2CO[C@H](CO)O2)cc1/C=C/I` [L-β-IVOddU, (2S,5S)-E-5-(2-Iodovinyl)-1-[2-(hydroxymethyl)-1,3-dioxolan-5-yl]uracil], the melting point is 162 °C (dec.). In data set [5], this compound displayed an IC50 at 3 days above 100 µM. In addition, in data set [2] (setting [10]), the IC50 came out at 0.035 µM. In data set [3] (setting [12]), this compound yielded an IC50 of 4.1 µM. For the same compound, the IC50 in data set [4] (setting [11]) came to 33 µM.

On to `O=c1[nH]c(=O)n([C@H]2CO[C@@H](CO)O2)cc1/C=C/Br` [D-β-BVOddU, (2R,5R)-E-5-(2-Bromovinyl)-1-[2-(hydroxymethyl)-1,3-dioxolan-5-yl]uracil], for which, in data set [5], the IC50 at 3 days is above 100 µM. Further, the IC50 is 26 µM in data set [2] (setting [10]) and above 50 µM in data set [4] (setting [11]).

Take `O=c1[nH]c(=O)n([C@H]2C[C@H](O)[C@@H](CO)O2)cc1/C=C/Br` [D-BVDU, (E)-5-(2-bromovinyl)-2′-deoxyuridine, reference compound]: the IC50 at 3 days in data set [5] was above 100 µM. In data set [2] (Human alphaherpesvirus 3, 72 h), the IC50 amounted to 0.05 µM.

Regarding `O=c1[nH]c(=O)n([C@@H]2O[C@H](CO)[C@@H](O)[C@@H]2O)cc1/C=C/Br` [D-ara-BVU, 1-β-D-arabinofuranosyl-(E)-5-(2-bromovinyl)uracil, reference compound], the IC50 at 3 days in data set [5] was above 100 µM. Moreover, the IC50 in data set [2] (setting [10]) was found to be 0.0007 µM. Besides, in data set [6], the “effect on FU catabolite amino acids / break-down of FU (in words)” value was “decreased from catabolite amino acids”.

`O=c1[nH]c(=O)n([C@@H]2CO[C@@H](CO)O2)cc1/C=C/Br` [D-α-BVOddU, (2R,5S)-E-5-(2-Bromovinyl)-1-[2-(hydroxymethyl)-1,3-dioxolan-5-yl]uracil] came in with an IC50 at 3 days in data set [5] above 100 µM. The IC50 in data set [2] (setting [10]) is above 30 µM; in data set [4] (setting [11]), above 50 µM.

`O=c1[nH]c(=O)n([C@H]2O[C@@H](CO)[C@H](O)[C@@H]2F)cc1/C=C/Br` [L-BV2′F-dU, E-5-(2-Bromovinyl)-1-(2-deoxy-2-fluoro-β-L-ribofuranosyl) uracil] registered an IC50 at 3 days in data set [5] above 100 µM. In addition, the IC50 in data set [2] (setting [10]) was above 30 µM; in data set [4] (setting [11]), above 50 µM.

For the compound `O=c1[nH]c(=O)n([C@H]2CO[C@H](CO)O2)cc1/C=C/I` [L-α-IVOddU, (2S,5R)-E-5-(2-Iodovinyl)-1-[2-(hydroxymethyl)-1,3-dioxolan-5-yl]uracil], the melting point was 60 °C (dec.). Further, in data set [5], the IC50 at 3 days is above 100 µM. In data set [2] (setting [10]), the IC50 is above 30 µM. The same compound came in with an IC50 in data set [4] (setting [11]) above 50 µM.

Take `O=c1[nH]c(=O)n([C@H]2CO[C@H](CO)O2)cc1/C=C/Cl` [L-α-ClVOddU, (2S,5R)-E-5-(2-Chlorovinyl)-1-[2-(hydroxymethyl)-1,3-dioxolan-5-yl]uracil]: the melting point was 101 to 102 °C. This compound registered an IC50 at 3 days in data set [5] above 100 µM. Also, the IC50 in data set [2] (setting [10]) is above 30 µM. The same compound returned a half-inhibitory concentration (IC50) in data set [4] (setting [11]) above 50 µM.

Take `O=c1[nH]c(=O)n([C@@H]2C[C@@H](O)[C@H](CO)O2)cc1/C=C/Br` [L-BVDU, E-5-(2-Bromovinyl)-2′-deoxy-L-uridine]: the IC50 in data set [1] and in data set [2] (setting [8]) was above 100 µM throughout.

For the compound `Nc1nc2c(ncn2COCCO)c(=O)[nH]1` [Acyclovir, reference compound], the half-maximal inhibitory concentration (IC50) at 3 days in data set [5] was above 100 µM. In addition, it took 13.6 µM to reach half-maximal inhibition in data set [4] (setting [11]) (IC50).

As for `Nc1nc(O)c2ncn(CCC(CO)CO)c2n1` [Pencyclovir, reference compound], the IC50 in data set [1] is above 100 µM; in data set [2] (setting [8]) it was 0.14 µM; in data set [4] (setting [9]) it was 18 µM.

With `O=c1[nH]c(=O)n([C@@H]2CO[C@H](CO)O2)cc1I` [L-IOddU, reference compound], the IC50 in data set [1] was above 100 µM; in data set [2] (setting [8]) it was 17 µM; in data set [3] it was 0.1 µM; in data set [4] (setting [9]), 70 µM.

Regarding `O=c1[nH]cc(F)c(=O)[nH]1` [FU, 5-fluorouracil], the “half-life of FU” value in data set [7] is on record as “approximately 25 minutes”.

For the compound `O=c1[nH]c(=O)n([C@@H]2CO[C@H](CO)O2)cc1/C=C/Cl` [L-β-ClVOdd, (2S,5S)-E-5-(2-Chlorovinyl)-1-[2-(hydroxymethyl)-1,3-dioxolan-5-yl]uracil], in data set [5], the IC50 at 3 days was above 100 µM. Also, the values for the IC50 in data set [2] (setting [10]) and in data set [4] (setting [11]) were 0.15 µM and 18 µM, respectively.

As to `O=c1[nH]c(=O)n([C@@H]2CS[C@H](CO)O2)cc1/C=C/Br` [L-β-BVSddU, (2R,5S)-E-5-(2-Bromovinyl)-1-(2-hydroxymethyl-1,3-oxathiolan-5-yl)uracil], in data set [5], the IC50 at 3 days is above 100 µM. Also, the IC50 is 12.5 µM in data set [2] (setting [10]) and above 50 µM in data set [3] (setting [12]).

(Values after US6653318B1, “5-(E)-Bromovinyl uracil analogues and related pyrimidine nucleosides as anti-viral agents and methods of use” (Yale University, priority 1999, dated 2003).)
